According to US20240285621A1, “PYRAZOLYL-PYRIMIDINE DERIVATIVES AS KINASE INHIBITORS” (NERVIANO MEDICAL SCIENCES S.R.L., priority 2020, published 2024):
Where a name gives a salt, the structure may show the parent alone. Read-outs that look alike come from different tables or passages of the source.

Biological target: T1, SYK (Homo sapiens, UniProt P43405)
T1 construct: Recombinant proteins SYK FL was produced at NMS via baculo virus infection in insect cells; His; GST; made in house; host or cells: insect cells (baculovirus)
Experiment: Biochemical kinase inhibition assay on SYK, KinaseGlo assay format
Details: read-out: IC50 (μM) Kglo

[1] = Table A, KinaseGlo format, pre-activated SYK 2.5 nM, ATP 2.5 μM, substrate BioDBn*327 125 uM, 60 minutes at rt
[2] = Table B, reference compounds of WO2012/139930, KinaseGlo format on Syk

Compound	IC50 [1]	IC50 [2]
Cc1cc(C)cc(Nc2nccc(-c3cc(C(=O)NCCF)n(C)n3)n2)c1 [Example 17, 3-{2-[(3,5-dimethylphenyl)amino]pyrimidin-4-yl}-N-(2-fluoroethyl)-1-methyl-1H-pyrazole-5-carboxamide]	0.06 µM	–
Cc1cc(C)cc(Nc2nccc(-c3cc(C(=O)NCCNC(C)C)n(C)n3)n2)c1 [Example 12, 3-{2-[(3,5-dimethylphenyl)amino]pyrimidin-4-yl}-1-methyl-N-[2-(propan-2-ylamino)ethyl]-1H-pyrazole-5-carboxamide hydrochloride]	0.398 µM	–
Cc1cccc(Nc2nccc(-c3cc(C(=O)N[C@H]4CCCC[C@@H]4N)n(C)n3)n2)c1 [Example 53, N-[(1S,2S)-2-aminocyclohexyl]-1-methyl-3-{2-[(3-methylphenyl)amino]pyrimidin-4-yl}-1H-pyrazole-5-carboxamide]	0.015 µM	–
Cc1cc(C)cc(Nc2nccc(-c3cc(C(=O)N(C)CCN(C)C)n(C)n3)n2)c1 [Example 5, N-[2-(dimethylamino)ethyl]-3-{2-[(3,5-dimethylphenyl)amino]pyrimidin-4-yl}-N,1-dimethyl-1H-pyrazole-5-carboxamide]	0.084 µM	–
C[C@@H](CO)NC(=O)c1cc(-c2ccnc(Nc3cc(C(F)(F)F)cc(C(F)(F)F)c3)n2)nn1C [Example 19, 3-(2-{[3,5-bis(trifluoromethyl)phenyl]amino}pyrimidin-4-yl)-N-[(2S)-1-hydroxypropan-2-yl]-1-methyl-1H-pyrazole-5-carboxamide]	0.104 µM	–
Cc1cc(C)cc(Nc2nccc(-c3cc(C(=O)N4CCN(C)CC4)n(C)n3)n2)c1 [Example 21, (3-{2-[(3,5-dimethylphenyl)amino]pyrimidin-4-yl}-1-methyl-1H-pyrazol-5-yl)(4-methylpiperazin-1-yl)methanone]	0.238 µM	–
CN(C)CCNC(=O)c1cc(-c2ccnc(Nc3cc(C(F)(F)F)cc(C(F)(F)F)c3)n2)nn1C [Example 18, 3-(2-{[3,5-bis(trifluoromethyl)phenyl]amino}pyrimidin-4-yl)-N-[2-(dimethylamino)ethyl]-1-methyl-1H-pyrazole-5-carboxamide hydrochloride]	0.491 µM	–
Cc1cc(C)cc(Nc2nccc(-c3cc(C(=O)NCCN4CCOCC4)n(C)n3)n2)c1 [Example 9, 3-{2-[(3,5-dimethylphenyl)amino]pyrimidin-4-yl}-1-methyl-N-[2-(morpholin-4-yl)ethyl]-1H-pyrazole-5-carboxamide]	0.398 µM	–
Cc1cc(C)cc(Nc2nccc(-c3cc(C(=O)N[C@@H]4CCCC[C@H]4O)n(C)n3)n2)c1 [Example 32, 5-[2-(3,5-Dimethyl-phenylamino)-pyrimidin-4-yl]-2-methyl-2H-pyrazole-3-carboxylic acid ((1R,2R)-2-hydroxy-cyclohexyl)-amide]	0.074 µM	–
Cn1nc(-c2ccnc(Nc3ccc4c(c3)c(Cl)cn4C)n2)cc1C(=O)N[C@H]1CCCC[C@H]1N [Example 38, N-[(1S,2R)-2-aminocyclohexyl]-3-{2-[(3-chloro-1-methyl-1H-indol-5-yl)amino]pyrimidin-4-yl}-1-methyl-1H-pyrazole-5-carboxamide hydrochloride]	0.005 µM	–
Cc1cc(C)cc(Nc2nccc(-c3cc(C(=O)NC4CN5CCC4CC5)n(C)n3)n2)c1 (centres unmarked) [Example 31, N-(1-azabicyclo[2.2.2]oct-3-yl)-3-{2-[(3,5-dimethylphenyl)amino]pyrimidin-4-yl}-1-methyl-1H-pyrazole-5-carboxamide]	0.139 µM	–
Cc1cc(C)cc(Nc2nccc(-c3cc(C(=O)NCC(C)(C)C)n(C)n3)n2)c1 [Example 45, 3-{2-[(3,5-dimethylphenyl)amino]pyrimidin-4-yl}-N-(2,2-dimethylpropyl)-1-methyl-1H-pyrazole-5-carboxamide]	0.065 µM	–
Cc1cccc(Nc2nccc(-c3cc(C(=O)N[C@H](CO)C(C)C)n(C)n3)n2)c1 [Example 41, N-[(2S)-1-hydroxy-3-methylbutan-2-yl]-1-methyl-3-{2-[(3-methylphenyl)amino]pyrimidin-4-yl}-1H-pyrazole-5-carboxamide]	0.077 µM	–
Cc1cc(C)cc(Nc2nccc(-c3cc(C(N)=O)n(C)n3)n2)c1 [Example 13, 3-{2-[(3,5-dimethylphenyl)amino]pyrimidin-4-yl}-1-methyl-1H-pyrazole-5-carboxamide]	0.226 µM	–

The remaining lines, values ahead:

IC50 [1]	IC50 [2]	Compound
0.144 µM	–	CC(C)[C@@H](CO)NC(=O)c1cc(-c2ccnc(Nc3ccc(N4CCN(C)CC4)c(Cl)c3)n2)nn1C [Example 111, 3-(2-{[3-chloro-4-(4-methylpiperazin-1-yl)phenyl]amino}pyrimidin-4-yl)-N-[(2S)-1-hydroxy-3-methylbutan-2-yl]-1-methyl-1H-pyrazole-5-carboxamide]
0.061 µM	–	Cn1nc(-c2ccnc(Nc3cc(F)cc(F)c3)n2)cc1C(=O)N[C@H]1CCCC[C@@H]1N [Example 113, N-[(1S,2S)-2-aminocyclohexyl]-3-{2-[(3,5-difluorophenyl)amino]pyrimidin-4-yl}-1-methyl-1H-pyrazole-5-carboxamide]
0.035 µM	–	Cc1cc(C)cc(Nc2nccc(-c3cc(C(=O)N[C@@H]4CCCC[C@@H]4O)n(C)n3)n2)c1 [Example 91, 3-{2-[(3,5-dimethylphenyl)amino]pyrimidin-4-yl}-N-[(1R,2S)-2-hydroxycyclohexyl]-1-methyl-1H-pyrazole-5-carboxamide]
0.471 µM	–	Cc1cc(C)cc(Nc2nccc(-c3cc(C(=O)N4CC[C@H](N(C)C)C4)n(C)n3)n2)c1 [Example 86, [(3S)-3-(dimethylamino)pyrrolidin-1-yl](3-{2-[(3,5-dimethylphenyl)amino]pyrimidin-4-yl}-1-methyl-1H-pyrazol-5-yl)methanone]
0.026 µM	–	Cc1cc(C)cc(Nc2nccc(-c3cc(C(=O)N[C@H](CN4CCCC4)c4ccccc4)n(C)n3)n2)c1 [Example 107, 3-{2-[(3,5-dimethylphenyl)amino]pyrimidin-4-yl}-1-methyl-N-[(1S)-1-phenyl-2-(pyrrolidin-1-yl)ethyl]-1H-pyrazole-5-carboxamide]
–	> 10 µM	CCc1cccc(CC)c1NC(=O)c1cc(-c2ccnc(Nc3ccccc3OC)n2)[nH]n1 [compound 14, reference compound]
0.081 µM	–	CC[C@@H](NC(=O)c1cc(-c2ccnc(Nc3cc(C)cc(C)c3)n2)nn1C)C(F)(F)F [Example 56, 3-{2-[(3,5-dimethylphenyl)amino]pyrimidin-4-yl}-1-methyl-N-[(2R)-1,1,1-trifluorobutan-2-yl]-1H-pyrazole-5-carboxamide]
0.023 µM	–	Cc1cc(C)cc(Nc2nccc(-c3cc(C(=O)N[C@H]4CCCC[C@H]4O)n(C)n3)n2)c1 [Example 115, 3-{2-[(3,5-dimethylphenyl)amino]pyrimidin-4-yl}-N-[(1S,2R)-2-hydroxycyclohexyl]-1-methyl-1H-pyrazole-5-carboxamide]
0.452 µM	–	COc1cc(Nc2nccc(-c3cc(C(=O)N[C@@H](C)C(=O)N(C)C)n(C)n3)n2)cc(OC)c1 [Example 71, 3-{2-[(3,5-dimethoxyphenyl)amino]pyrimidin-4-yl}-N-[(2S)-1-(dimethylamino)-1-oxopropan-2-yl]-1-methyl-1H-pyrazole-5-carboxamide]
0.012 µM	–	Cc1cc(C)cc(Nc2nccc(-c3cc(C(=O)N[C@H](CN4CCC4)C(C)C)[nH]n3)n2)c1 [Example 105, N-[(2S)-1-(azetidin-1-yl)-3-methylbutan-2-yl]-3-{2-[(3,5-dimethylphenyl)amino]pyrimidin-4-yl}-1H-pyrazole-5-carboxamide]
0.045 µM	–	Cc1cc(C)cc(Nc2nccc(-c3cc(C(=O)N[C@H]4CCCC[C@@H]4O)n(C)n3)n2)c1 [Example 118, 3-{2-[(3,5-dimethylphenyl)amino]pyrimidin-4-yl}-N-[(1S,2S)-2-hydroxycyclohexyl]-1-methyl-1H-pyrazole-5-carboxamide]
0.023 µM	–	Cc1cccc(Nc2nccc(-c3cc(C(=O)N[C@H](CN4CCCC4)C(C)C)n(C)n3)n2)c1 [Example 112, 1-methyl-3-{2-[(3-methylphenyl)amino]pyrimidin-4-yl}-N-[(2S)-3-methyl-1-(pyrrolidin-1-yl)butan-2-yl]-1H-pyrazole-5-carboxamide]
0.004 µM	–	CC(C)[C@@H](CN1CCC1)NC(=O)c1cc(-c2ccnc(Nc3cc(Cl)cc(Cl)c3)n2)nn1C [Example 61, N-[(2S)-1-(azetidin-1-yl)-3-methylbutan-2-yl]-3-{2-[(3,5-dichlorophenyl)amino]pyrimidin-4-yl}-1-methyl-1H-pyrazole-5-carboxamide]
0.324 µM	–	CC[C@H](NC(=O)c1cc(-c2ccnc(Nc3cc(C)cc(C)c3)n2)nn1C)C(F)(F)F [Example 55, 3-{2-[(3,5-dimethylphenyl)amino]pyrimidin-4-yl}-1-methyl-N-[(2S)-1,1,1-trifluorobutan-2-yl]-1H-pyrazole-5-carboxamide]
0.011 µM	–	Cn1nc(-c2ccnc(Nc3cc(Cl)cc(Cl)c3)n2)cc1C(=O)N[C@H]1CCCC[C@@H]1N [Example 116, N-[(1S,2S)-2-aminocyclohexyl]-3-{2-[(3,5-dichlorophenyl)amino]pyrimidin-4-yl}-1-methyl-1H-pyrazole-5-carboxamide]
0.011 µM	–	COc1cc(Nc2nccc(-c3cc(C(=O)N[C@H]4CCCC[C@H]4N)n(C)n3)n2)cc(OC)c1 [Example 100, N-[(1S,2R)-2-aminocyclohexyl]-3-{2-[(3,5-dimethoxyphenyl)amino]pyrimidin-4-yl}-1-methyl-1H-pyrazole-5-carboxamide hydrochloride]
–	> 10 µM	CNC(=O)c1cc(-c2ccnc(N(C)C)n2)n(C(C)(C)C)n1 [compound 39, reference compound]
0.209 µM	–	Cc1cc(C)cc(Nc2nccc(-c3cc(C(=O)N4CC[C@@H](O)C4)n(C)n3)n2)c1 [Example 85, (3-{2-[(3,5-dimethylphenyl)amino]pyrimidin-4-yl}-1-methyl-1H-pyrazol-5-yl)[(3R)-3-hydroxypyrrolidin-1-yl]methanone]
